From patent publication US9884043B2, “RORgammaT inhibitors” (Merck Sharp & Dohme Corp., priority 2011, dated 2018)

What follows are compounds tested against T1, HIS-tagged RORγ-LBD (Homo sapiens, UniProt P51449) (assay: TR-FRET assay (Protocol B), RORγ-LBD lysate / biotinylated SRC1-2 LXXLL peptide). Conditions: unpurified RORγ-LBD lysate ~10 nM, SRC1-2 peptide 450 nM.
T1 construct: HIS-tagged RORγ-LBD was recombinantly expressed in SF9 cells using a baculovirus expression system; made in house; host or cells: SF9 cells, baculovirus; crude lysate used
T1 sequence (P51449 269-508 limits assumed): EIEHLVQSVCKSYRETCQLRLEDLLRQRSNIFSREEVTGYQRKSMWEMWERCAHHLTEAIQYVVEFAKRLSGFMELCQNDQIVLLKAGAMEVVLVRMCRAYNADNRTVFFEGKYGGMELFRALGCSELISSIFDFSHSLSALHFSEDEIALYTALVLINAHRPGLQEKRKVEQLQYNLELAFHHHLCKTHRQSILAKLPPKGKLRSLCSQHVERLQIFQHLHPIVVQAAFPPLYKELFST
Assay type: biochemical
Excerpt: (§1) Activation of RORgammaT activity can be measured using e.g. biochemical TR-FRET assay. In such an assay, interaction of cofactor-derived peptides with human RORgammaT-Ligand Binding Domain (LBD) can be measured.
(§2) To identify novel antagonists of RORgammaT, an assay was developed which employs the interaction of RORgammaT with its co-activator peptide SRC1_2. […] The assay was run following three slightly different protocols, i.e. Protocol A, Protocol B, and Protocol C, which are described below.
TR-Fret Assay (Protocol B)
HIS-tagged RORγ-LBD was recombinantly expressed in SF9 cells using a baculovirus expression system. The protein was not purified. Cells were lysed and the lysate was used as a source for RORγ-LBD for the assay. A 1:80 dilution of RORγ-LBD lysate in assay buffer (25 mM HEPES pH 7.0, 100 mM NaCl, 0.01% Tween, 0.1% BSA) was prepared and 5 μL was added to each well (RORγ-LBD final concentration ˜10 nM). Control wells received lysate from SF9 cells not expressing RORγ-LBD.
Compounds to be tested were diluted to 100× final test concentration in DMSO and further diluted to 4× final test concentration using assay buffer to provide the test compound mixture. An aliquot (5 μL) of the test compound mixture was added to each well.

IC50	SMILES
500 to 10000 nM	O=C(O)c1cccc(-c2nn(C(=O)c3c(Cl)cccc3C(F)(F)F)c3cccnc23)c1 [Example 24AC, 3-(1-(2-chloro-6-(trifluoromethyl)-benzoyl)-1H-pyrazolo[4,3-b]pyridin-3-yl) benzoic acid]
< 50 nM	N#Cc1cc(-c2nn(C(=O)c3c(Cl)cccc3C(F)(F)F)c3cccc(F)c23)ccc1C(=O)O [Example 24U, 4-(1-(2-chloro-6-(trifluoromethyl)-benzoyl)-4-fluoro-1H-indazol-3-yl)-2-cyano benzoic acid]
> 10000 nM	O=C(O)c1cc(-c2nn(C(=O)c3c(Cl)cccc3C(F)(F)F)c3cccc(F)c23)ccc1O [Example 24Z, 5-(1-(2-chloro-6-(trifluoromethyl)-benzoyl)-4-fluoro-1H-indazol-3-yl)-2-hydroxybenzoic acid]
< 50 nM	Cc1cc(C(=O)O)ccc1-c1nn(C(=O)c2c(Cl)cccc2C(F)(F)F)c2cccc(F)c12 [Example 24L, 4-(1-(2-chloro-6-(trifluoromethyl)-benzoyl)-4-fluoro-1H-indazol-3-yl)-3-methylbenzoic acid]
< 50 nM	COc1cccc(F)c1C(=O)n1nc(-c2ccc(C(=O)O)cc2)c2c(F)cccc21 [Example 24AB, 4-(4-fluoro-1-(2-fluoro-6-methoxybenzoyl)-1H-indazol-3-yl)benzoic acid]
50 to 500 nM	O=C(O)c1cc(F)c(-c2nn(C(=O)c3c(Cl)cccc3C(F)(F)F)c3cccnc23)cc1Cl [Example 24AJ, 2-chloro-4-(1-(2-chloro-6-(trifluoromethyl)-benzoyl)-1H-pyrazolo[4,3-b]pyridin-3-yl)-5-fluorobenzoic acid]
50 to 500 nM	COc1cc(F)c2c(-c3ccc(C(=O)O)cc3)nn(C(=O)c3c(Cl)cccc3C(F)(F)F)c2c1 [Example 24AZ, 4-(1-(2-chloro-6-(trifluoromethyl)-benzoyl)-4-fluoro-6-methoxy-1H-indazol-3-yl) benzoic acid]
< 50 nM	COc1cc(-c2nn(C(=O)c3c(Cl)cccc3C(F)(F)F)c3cccc(F)c23)c(F)cc1C(=O)O [Example 24Y, 4-(1-(2-chloro-6-(trifluoromethyl)-benzoyl)-4-fluoro-1H-indazol-3-yl)-5-fluoro-2-methoxybenzoic acid]

What follows are compounds tested against T2, 6His(GST)RORgamma-LBD (Homo sapiens, UniProt P51449) (assay: TR-FRET assay (Protocol A), RORgamma-LBD / SRC1_2 co-activator peptide interaction). Conditions: SRC1_2 peptide 0.1 μM, RORgamma-LBD 10 nM, overnight incubation at 4° C.
T2 construct: the applied RORgamma-LBD contains a 6-His and GST tag; GST (N); made in house; host or cells: baculovirus-infected Sf-21 insect cells
T2 sequence (P51449 269-508 limits assumed): T1 sequence (P51449 269-508 limits assumed)
Assay type: biochemical
Excerpt: as §1, §2
TR-FRET Assay (Protocol A)
The 6His(GST)RORgamma-LBD was expressed and purified from baculovirus infected Sf-21 insect cells (Bac-to-BAC, Invitrogen) and purified using glutathione sepharose chromatography (GE healthcare). Biotin and His function as anchoring points for streptavidin-allophycocyanin (Strep-APC, Perkin Elmer, C130-100) and anti-His-Europium Cryptate (Perkin Elmer, AD0111), respectively. Since energy transfer between the streptavidin and His-coupled labels APC and europium cryptate can only take place when these labels are in close proximity, measurement of energy transfer in a mixture of biotinylated peptide, His-GR-LBD, streptavidin-APC and anti-His-Europium Cryptate will be indicative for RORy-LBD/peptide binding. […] Changes in peptide binding caused by dose-curves of compounds added to the reaction mixture (DMSO concentration 0.1%), can likewise be monitored.

EC50	SMILES
166 nM	O=C(O)c1ccc(-c2nn(S(=O)(=O)c3ccc(Cl)c(Cl)c3Cl)c3ccccc23)cc1 [Example 13F, 4-(1-(2,3,4-trichlorophenylsulfonyl)-1H-indazol-3-yl)benzoic acid]
182 nM	O=C(O)c1ccc(-c2nn(S(=O)(=O)c3cccc4ccccc34)c3ccccc23)cc1 [Example 15B, 4-(1-(naphthalen-1-ylsulfonyl)-1H-indazol-3-yl)benzoic acid]
339 nM	O=C(O)c1ccc(-c2nn(C(=O)c3c(Cl)cncc3Cl)c3ccccc23)cc1 [Example 11A, 4-(1-(3,5-dichloroisonicotinoyl)-1H-indazol-3-yl)benzoic acid]
26.3 nM	O=C(O)c1ccc(-c2nn(C(=O)c3ccccc3Cl)c3ccccc23)cc1 [Example 11L, 4-(1-(2-chlorobenzoyl)-1H-indazol-3-yl)benzoic acid]
4900 nM	O=C(O)c1ccc(-c2nn(C(=O)c3c(Cl)cccc3Cl)c3ccncc23)cc1 [Example 8, 4-(1-(2,6-dichlorobenzoyl)-1H-pyrazolo[4,3-c]pyridin-3-yl)benzoic acid]
155 nM	O=C(O)c1ccc(-c2nn(S(=O)(=O)c3cccc4cccnc34)c3ccccc23)cc1 [Example 13A, 4-(1-(quinolin-8-ylsulfonyl)-1H-indazol-3-yl)benzoic acid]
5010 nM	O=C(c1c(Cl)cccc1Cl)n1nc(-c2ccc(-c3nnn[nH]3)cc2)c2ccccc21 [Example 22, (3-(4-(1H-tetrazol-5-yl)phenyl)-1H-indazol-1-yl)(2,6-dichlorophenyl)methanone]
70.8 nM	O=C(O)c1ccc(-c2nn(C(=O)c3c(Cl)cc(Cl)cc3Cl)c3ccccc23)cc1 [Example 11H, 4-(1-(2,4,6-trichlorobenzoyl)-1H-indazol-3-yl)benzoic acid]
75.9 nM	O=C(O)c1ccc(-c2nn(S(=O)(=O)c3cc(Cl)ccc3Cl)c3ccccc23)cc1 [Example 13C, 4-(1-(2,5-dichlorophenylsulfonyl)-1H-indazol-3-yl)benzoic acid]
513 nM	Cc1ccc(C#N)c(S(=O)(=O)n2nc(-c3ccc(C(=O)O)cc3)c3ccccc32)c1 [Example 15E, 4-(1-(2-cyano-5-methylphenylsulfonyl)-1H-indazol-3-yl)benzoic acid]
513 nM	COC(=O)c1ccccc1C(=O)n1nc(-c2ccc(C(=O)O)cc2)c2ccccc21 [Example 11C, 4-(1-(2-(methoxycarbonyl)benzoyl)-1H-indazol-3-yl)benzoic acid]
575 nM	O=S(=O)(c1ccc(F)cc1Br)n1nc(-c2ccc(-c3nnn[nH]3)cc2)c2ccccc21 [Example 21B, 3-(4-(1H-tetrazol-5-yl)phenyl)-1-(2-bromo-4-fluorophenylsulfonyl)-1H-indazole]
14.1 nM	O=C(O)c1ccc(-c2cn(C(=O)c3c(Cl)cccc3Cl)c3cccnc23)cc1 [Example 7, 4-(1-(2,6-dichlorobenzoyl)-1H-pyrrolo[3,2-b]pyridin-3-yl)benzoic acid]
52.5 nM	Cc1c(Cl)cccc1S(=O)(=O)n1nc(-c2ccc(C(=O)O)cc2)c2ccccc21 [Example 13D, 4-(1-(3-chloro-2-methylphenylsulfonyl)-1H-indazol-3-yl)benzoic acid]
245 nM	O=C(O)c1ccc(-c2nn(C(=O)c3c(Cl)cccc3Cl)c3ccc(F)cc23)cc1 [Example 2, 4-(1-(2,6-dichlorobenzoyl)-5-fluoro-1H-indazol-3-yl)benzoic acid]
1020 nM	O=C(c1cccc(Cl)c1Cl)n1nc(-c2ccc(-c3nnn[nH]3)cc2)c2ccccc21 [Example 23, (3-(4-(1H-tetrazol-5-yl)phenyl)-1H-indazol-1-yl)(2,3-dichlorophenyl)methanone]
21.4 nM	O=C(O)c1ccc(-c2nn(C(=O)c3cccc(Cl)c3Cl)c3ccccc23)cc1 [Example 11K, 4-(1-(2,3-dichlorobenzoyl)-1H-indazol-3-yl)benzoic acid]
3550 nM	O=S(=O)(c1cccc(Cl)c1)n1nc(-c2ccc(-c3nnn[nH]3)cc2)c2ccccc21 [Example 20, 3-(4-(1H-tetrazol-5-yl)phenyl)-1-(3-chlorophenylsulfonyl)-1H-indazole]
60.3 nM	COc1cccc(F)c1C(=O)n1nc(-c2ccc(C(=O)O)cc2)c2ccccc21 [Example 11G, 4-(1-(2-fluoro-6-methoxybenzoyl)-1H-indazol-3-yl)benzoic acid]
1230 nM	Cc1cc(C)cc(S(=O)(=O)n2nc(-c3ccc(C(=O)O)cc3F)c3ccccc32)c1 [Example 17, 4-(1-(3,5-dimethylphenylsulfonyl)-1H-indazol-3-yl)-3-fluorobenzoic acid]
9330 nM	O=S(=O)(c1ccccc1C(F)(F)F)n1nc(-c2ccc(C(O)(C(F)(F)F)C(F)(F)F)cc2)c2ccccc21 [Example 9, 1,1,1,3,3,3-hexafluoro-2-(4-(1-(2-(trifluoromethyl)phenylsulfonyl)-1H-indazol-3-yl)phenyl)propan-2-ol]
8.32 nM	O=C(O)c1ccc(-c2nn(C(=O)c3c(Cl)cccc3Cl)c3cccc(F)c23)cc1 [Example 4, 4-(1-(2,6-dichlorobenzoyl)-4-fluoro-1H-indazol-3-yl)benzoic acid]
13.5 nM	O=C(O)c1ccc(-c2nn(C(=O)c3c(Cl)cccc3Cl)c3cccnc23)cc1 [Example 6A, 4-(1-(2,6-dichlorobenzoyl)-1H-pyrazolo[4,3-b]pyridin-3-yl)benzoic acid]
1910 nM	CCOc1ccccc1C(=O)n1nc(-c2ccc(C(=O)O)cc2)c2ccccc21 [Example 11J, 4-(1-(2-ethoxybenzoyl)-1H-indazol-3-yl)benzoic acid]
174 nM	O=C(O)c1ccc(-c2nn(C(=O)c3c(Cl)cccc3Cl)c3cc(F)ccc23)cc1 [Example 5, 4-(1-(2,6-dichlorobenzoyl)-6-fluoro-1H-indazol-3-yl)benzoic acid]
